# Source: patent US12667572B2, “Tricyclic compounds useful in the treatment of cancer, autoimmune and inflammatory disorders” (SCHRÖDINGER, INC., priority 2021, dated 2026)
# Target: T1, full-length MALT1 protein His-MALT1(1-824) (Homo sapiens, UniProt Q9UDY8)
# T1 construct: full-length MALT1 protein His-MALT1(1-824); His (N); made in house; host or cells: baculovirus-infected insect cells
# T1 sequence (Q9UDY8 1-824): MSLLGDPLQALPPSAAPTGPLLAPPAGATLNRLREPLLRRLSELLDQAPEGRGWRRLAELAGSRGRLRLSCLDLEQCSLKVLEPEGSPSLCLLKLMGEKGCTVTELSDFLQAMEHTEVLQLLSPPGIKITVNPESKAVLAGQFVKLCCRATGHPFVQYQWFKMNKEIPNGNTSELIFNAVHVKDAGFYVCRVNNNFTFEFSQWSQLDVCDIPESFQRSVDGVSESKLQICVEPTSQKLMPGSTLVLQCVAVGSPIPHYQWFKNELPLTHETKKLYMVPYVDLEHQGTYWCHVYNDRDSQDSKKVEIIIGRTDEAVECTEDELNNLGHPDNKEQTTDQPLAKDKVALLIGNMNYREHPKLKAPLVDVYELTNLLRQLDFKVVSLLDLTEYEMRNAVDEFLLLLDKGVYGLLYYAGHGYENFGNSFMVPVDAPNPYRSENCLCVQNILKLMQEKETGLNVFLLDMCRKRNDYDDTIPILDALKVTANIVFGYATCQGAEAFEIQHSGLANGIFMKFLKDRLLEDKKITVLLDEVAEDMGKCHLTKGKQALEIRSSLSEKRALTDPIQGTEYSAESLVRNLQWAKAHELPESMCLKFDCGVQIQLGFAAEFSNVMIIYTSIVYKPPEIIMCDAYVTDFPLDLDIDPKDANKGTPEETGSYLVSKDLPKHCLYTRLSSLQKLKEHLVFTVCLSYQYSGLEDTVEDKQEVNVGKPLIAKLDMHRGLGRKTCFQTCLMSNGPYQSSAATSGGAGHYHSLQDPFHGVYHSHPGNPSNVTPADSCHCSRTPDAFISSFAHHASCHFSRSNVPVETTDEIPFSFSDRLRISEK
# Test: MALT1 protease assay, Assay 2 (1 nM MALT1, Ac-LRSR-AMC substrate)
# Type: biochemical
# Conditions: 1 nM MALT1, 50 μM Ac-LRSR-AMC, 2 h pre-incubation, 8 hr incubation at RT
# Description: MALT1 protease activity was assessed in an in vitro assay using a tetrapeptide as substrate and full-length MALT1 protein His-MALT1(1-824) purified from baculovirus-infected insect cells. The tetrapeptide substrate is Ac-LRSR-AMC (SM Biochemicals) with Km measured at around 100 μM.
# The final assay buffer includes 1 nM (Assay 2) or 2 nM (Assay 1) of MALT1 full-length protein, 50 μM Ac-LRSR-AMC substrate, 50 mM Tris pH 7.5, 600 mM Sodium Citrate, 1 mM DTT, 1 mM EDTA, and 0.05% BSA in 384-well plate format using black microtiter square well plates (Optiplate 384-F, Perkin Elmer).
# Test compounds were dissolved in 100% DMSO at stock of 10 mM, with final DMSO concentration 0.1%. Test compounds were pre-incubated with MALT1 protein for 2 h at room temperature. Substrate was added after the pre-incubation and fluorescence signal was measured using Envision at excitation 355 nm and emission 460 nm after 8 hr incubation at RT. Increase in the assay signal was linear over this period and proportional with increase in the enzyme content.
# The fluorescence units were transformed to percentage of remaining activity by using the high control (HC, median of fluorescence signal from wells containing MALT1 protein, substrate, and DMSO) and low control (LC, median of fluorescence signal from wells with substrate only) with the formula below: […]
# IC50 and Hill coefficients were obtained using Graph Pad Prism (Graph Pad software, Inc, USA) with non-linear regression analysis.
row,SMILES,IC50 [nM]
1,"CC1(C)CC(C(=O)Nc2cnc(C(=O)N3CC(F)(F)C3)c(C(F)F)c2)c2cnc3cc(Cl)nn3c21 (centres unmarked) [Example 174, 2-chloro-N-(6-(3,3-difluoroazetidine-1-carbonyl)-5-(difluoromethyl)pyridin-3-yl)-8,8-dimethyl-7,8-dihydro-6H-cyclopenta[e]pyrazolo[1,5-a]pyrimidine-6-carboxamide]",100 to 1000
2,"Cn1nnc(-c2ncc(NC(=O)[C@@H]3CC(C)(C)c4c3cnc3cc(Cl)nn43)cc2Cl)n1 (single isomer, unassigned) [Example 142, 2-chloro-N-(5-chloro-6-(2-methyl-2H-tetrazol-5-yl)pyridin-3-yl)-8,8-dimethyl-7,8-dihydro-6H-cyclopenta[e]pyrazolo[1,5-a]pyrimidine-6-carboxamide]",≥ 1000
3,"C[C@]1(C(F)(F)F)C[C@H](C(=O)Nc2cnc(-n3nccn3)c(Cl)c2)c2cnc3cc(F)nn3c21 (single isomer, unassigned) [Example 187]",10 to 100
4,"CC1(C)C[C@@H](C(=O)Nc2cnc(-n3nccn3)c(C#N)c2)c2cnc3cc(C(F)F)nn3c21 (single isomer, unassigned) [Example 129, N-(5-cyano-6-(2H-1,2,3-triazol-2-yl)pyridin-3-yl)-2-(difluoromethyl)-8,8-dimethyl-7,8-dihydro-6H-cyclopenta[e]pyrazolo[1,5-a]pyrimidine-6-carboxamide]",100 to 1000
5,"Cc1c(F)nn2c3c(cnc12)C(C(=O)Nc1cnc(-n2nccn2)c(Cl)c1)CC3(C)C (single isomer, unassigned) [Example 114, N-(5-chloro-6-(2H-1,2,3-triazol-2-yl)pyridin-3-yl)-2-fluoro-3,8,8-trimethyl-7,8-dihydro-6H-cyclopenta[e]pyrazolo[1,5-a]pyrimidine-6-carboxamide]",100 to 1000
6,"O=C(Nc1cnc(-n2nccn2)c(C(F)(F)F)c1)[C@H]1C[C@@]2(CCO2)c2c1cnc1cc(Cl)nn21 (racemic) [Example 116, (trans)-N-(6-(2H-1,2,3-triazol-2-yl)-5˜(trifluoromethyl)pyridin-3-yl)-2-chloro-6,7-dihydrospiro[cyclopenta[e]pyrazolo[1,5-a]pyrimidine-8,2′-oxetane]-6-carboxamide]",100 to 1000
7,"Cn1nnc(-c2ncc(NC(=O)C3CC(C)(C)c4c3cnc3cc(Cl)nn43)cc2Cl)n1 (single isomer, unassigned) [Example 143, 2-chloro-N-(5-chloro-6-(2-methyl-2H-tetrazol-5-yl)pyridin-3-yl)-8,8-dimethyl-7,8-dihydro-6H-cyclopenta[e]pyrazolo[1,5-a]pyrimidine-6-carboxamide]",100 to 1000
8,"C[C@]1(C(F)(F)F)C[C@@H](C(=O)Nc2cnc(-n3nccn3)c(C(F)F)c2)c2cnc3cc(Cl)nn3c21 (single isomer, unassigned) [Example 63, 2-chloro-N-(5-(difluoromethyl)-6-(2H-1,2,3-triazol-2-yl)pyridin-3-yl)-8-methyl-8-(trifluoromethyl)-7,8-dihydro-6H-cyclopenta[e]pyrazolo[1,5-a]pyrimidine-6-carboxamide]",100 to 1000
9,"CC1(C)CC(C)(C(=O)Nc2cnc(-n3nccn3)c(Cl)c2)c2cnc3cc(Cl)nn3c21 (single isomer, unassigned) [Example 139, 2-chloro-N-(5-chloro-6-(2H-1,2,3-triazol-2-yl)pyridin-3-yl)-6,8,8-trimethyl-7,8-dihydro-6H-cyclopenta[e]pyrazolo[1,5-a]pyrimidine-6-carboxamide]",≥ 1000
10,"COc1cnc(C(F)(F)F)cc1NC(=O)C1CC(C)(C)c2c1cnc1cc(F)nn21 (single isomer, unassigned) [Example 93, 2-fluoro-N-(5-methoxy-2-(trifluoromethyl)pyridin-4-yl)-8,8-dimethyl-7,8-dihydro-6H-cyclopenta[e]pyrazolo[1,5-a]pyrimidine-6-carboxamide]",≥ 1000
11,"CC1(C)CC(C(=O)Nc2cnc(OC(F)F)c(C#N)n2)c2cnc3cc(F)nn3c21 (single isomer, unassigned) [Example 87, N-(6-cyano-5-(difluoromethoxy)pyrazin-2-yl)-2-fluoro-8,8-dimethyl-7,8-dihydro-6H-cyclopenta[e]pyrazolo[1,5-a]pyrimidine-6-carboxamide]",≥ 1000
12,"O=C(Nc1cnc(C(O)C(F)F)c(Cl)c1)C1CC2(CCC2)c2c1cnc1cc(F)nn21 (single isomer, unassigned) [Example 133, N-(5-chloro-6-(2,2-difluoro-1-hydroxyethyl)pyridin-3-yl)-2′-fluoro-6′,7′-dihydrospiro[cyclobutane-1,8′-cyclopenta[e]pyrazolo[1,5-a]pyrimidine]-6′-carboxamide]",≥ 1000
13,"CC1(C)C[C@@H](C(=O)Nc2cnc(-n3nccn3)c(Cl)c2)c2cnn3cc(Cl)nc3c21 (single isomer, unassigned) [Example 194, 2-chloro-N-(5-chloro-6-(2H-1,2,3-triazol-2-yl)pyridin-3-yl)-9,9-dimethyl-8,9-dihydro-7H-cyclopenta[d]imidazo[1,2-b]pyridazine-7-carboxamide]",100 to 1000
14,"C[C@@]1(C(F)(F)F)C[C@@H](C(=O)Nc2cnc(-n3nccn3)c(C(F)F)c2)c2cnc3cc(Cl)nn3c21 (single isomer, unassigned) [Example 65, 2-chloro-N-(5-(difluoromethyl)-6-(2H-1,2,3-triazol-2-yl)pyridin-3-yl)-8-methyl-8-(trifluoromethyl)-7,8-dihydro-6H-cyclopenta[e]pyrazolo[1,5-a]pyrimidine-6-carboxamide]",100 to 1000
15,"CC1(C)C[C@@H](C(=O)Nc2cnc(-n3nccn3)c(C(F)(F)F)c2)c2cnc3cc(Cl)nn3c21 (single isomer, unassigned) [Example 45, N-(6-(2H-1,2,3-triazol-2-yl)-5˜(trifluoromethyl)pyridin-3-yl)-2-chloro-8,8-dimethyl-7,8-dihydro-6H-cyclopenta[e]pyrazolo[1,5-a]pyrimidine-6-carboxamide]",≥ 1000
16,"Cn1nnnc1-c1ncc(NC(=O)[C@@H]2CC(C)(C)c3c2cnc2cc(Cl)nn32)cc1Cl (single isomer, unassigned) [Example 144, 2-chloro-N-(5-chloro-6-(1-methyl-1H-tetrazol-5-yl)pyridin-3-yl)-8,8-dimethyl-7,8-dihydro-6H-cyclopenta[e]pyrazolo[1,5-a]pyrimidine-6-carboxamide]",10 to 100
17,"CC1(C)C[C@@H](C(=O)Nc2cnc(-n3nccn3)c(C(F)(F)F)c2)c2cnn3cc(Cl)nc3c21 (single isomer, unassigned) [Example 192, N-(6-(2H-1,2,3-triazol-2-yl)-5-(trifluoromethyl)pyridin-3-yl)-2-chloro-9,9-dimethyl-8,9-dihydro-7H-cyclopenta[d]imidazo[1,2-b]pyridazine-7-carboxamide]",100 to 1000
18,"CC1(C)CC(C(=O)Nc2cnc(-n3ncc(C#N)n3)c(Cl)c2)c2cnc3cc(Cl)nn3c21 (centres unmarked) [Example 137, 2-chloro-N-(5-chloro-6-(4-cyano-2H-1,2,3-triazol-2-yl)pyridin-3-yl)-8,8-dimethyl-7,8-dihydro-6H-cyclopenta[e]pyrazolo[1,5-a]pyrimidine-6-carboxamide]",≥ 1000
19,"CC1(C)C[C@@H](C(=O)Nc2cnc(OC(F)F)c(Cl)c2)c2cnn3cc(Cl)nc3c21 (single isomer, unassigned) [Example 190, 2-chloro-N-(5-chloro-6-(difluoromethoxy)pyridin-3-yl)-9,9-dimethyl-8,9-dihydro-7H-cyclopenta[d]imidazo[1,2-b]pyridazine-7-carboxamide]",100 to 1000
20,"O=C(Nc1cnc(-n2nccn2)c(Cl)c1)C1CC2(COC2)c2c1cnc1cc(Cl)nn21 (centres unmarked) [Example 165, 2-chloro-N-(5-chloro-6-(2H-1,2,3-triazol-2-yl)pyridin-3-yl)-6,7-dihydrospiro[cyclopenta[e]pyrazolo[1,5-a]pyrimidine-8,3′-oxetane]-6-carboxamide]",≥ 1000
